The test system of assay [1] is rat skeletal muscle cell line, L6. Put plainly: cells. Format: cell-based. The conditions noted are these: Rattus norvegicus.
Assay [2] relates to C. albicans (ATCC strain 90028). Put plainly: Antifungal microdilution broth assay (PrestoBlue), C. albicans. Format: cell-based, Candida albicans. The conditions noted are these: Candida albicans, 100 μM. Here is the method:
Sigma-Aldrich) was used as the base medium for testing. […] solution of morpholinepropanesulfonic acid (MOPS; Sigma-Aldrich) was added to the RPMI to a final concentration of 0.165 M for buffering (RPMI-MOPS). This medium was adjusted to a pH of 7.0 with 10 M NaOH and filter sterilized. C. albicans (ATCC strain 90028), C. [NT] strain 66032), and C. tropicalis (ATCC strain 750) were cultured on potato dextrose agar (Sigma-Aldrich) plates, and incubated at 35° C. for 24 hours. For antifungal testing, overnight colonies were adjusted to 1.5×10^3 cells/mL, hereafter referred to as the test inoculum. PrestoBlue® (Life Technologies, Invitrogen, Carlsbad, Calif.), a resazurin-based cell viability reagent that, in metabolically active cells, is reduced from blue, non-fluorescent resazurin, to red, fluorescent resorufin, was used to assess inhibition of yeast growth by the aurones. […] Following addition of aurone, plates were then incubated for 24 hours at 35° C. PrestoBlue was added to a final concentration of 10% in each well and fluorescence read at 560 nm excitation and 590 nm emission, per manufacturer instructions, using a SpectraMax M2e spectrophotometer (Molecular Devices, LLC, Sunnyvale, Calif.). To optimize the PrestoBlue reduction time, RFUs were collected at 15 minute intervals for 4 hours using a reference antifungal. […] IC50 determination was calculated using GraphPad Prism version 7.01 for Windows (GraphPad Software, Inc., La Jolla, Calif.) from the RFUs at dilution points. Calculations were made with a nonlinear regression after transforming the molar concentrations of the aurones into the logarithmic form. Graphing was accomplished utilizing the same program following a four parameter curve fitting sigmoidal plot of the data. All aurones and controls were tested in triplicate and all testing was repeated in at least three independent experiments.

In assay [3] the test system is Leishmania amazonensis promastigotes expressing beta-lactamase. Put plainly: microbe, parasite or virus in culture. Format: cell-based. The settings on record: Leishmania amazonensis, read-out: IC50 L. amaz.
Assay [4] concerns Trypanosoma brucei brucei 427 cells. Put plainly: T. brucei culture and assay (PrestoBlue). The class given is cell-based. The settings on record: Trypanosoma brucei; Table 1; mean of 2(+) independent trials; read-out: IC50 T. brucei.
Assay [5] concerns Trypanosoma cruzi Tulahuen cells expressing beta-galactosidase. Briefly: T. cruzi intracellular assay (beta-galactosidase, L6 host cells). The conditions noted are these: Trypanosoma cruzi, TULAHUEN
[6] abbreviates: Table 1, read-out: IC50 Toxicity (L6).
Where [7] appears, read: ATCC90028, Table 4B, C. albicans, value ± spread, read-out: Percent Inhibition (at 100 μM).
The mark [8] stands for this setting: Table 3A, weighted means of two or more independent trials, read-out: IC50 L6.
Setting [9] is: ATCC90028, Table 4A, read-out: C. albicans inhibition (at 100 μM).
The mark [10] stands for this setting: read-out: IC50 TC-I, Table 3A, weighted means of two or more independent trials.
Where [11] appears, read: Table 3C, weighted means of two or more independent trials, read-out: IC50 L6.
Where [12] appears, read: read-out: IC50 TC-I, Table 3C, intracellular T. cruzi, weighted means of two or more independent trials.

SMILES strings stand for the structures. Where two headings read alike, the source gives them in different places. Where only a bound is given, the exact number is not on record here.

With `COc1cc(/C=C2\Oc3ccccc3C2=O)ccc1O` [Aurone 9053, (Z)-2-(4-hydroxy-3-methoxybenzylidene)benzofuran-3(2H)-one], the IC50 in assay [1] (setting [6]) was more than 200 µM; in assay [3] it was 2150 nM; in assay [4], more than 50 µM; in assay [5] (read-out: IC50 T. cruzi, Table 1, intracellular assay, mean of 2(+) trials (^c one trial)), more than 50 µM; in assay [5] (read-out: IC50 T. cruzi, Table 2, intracellular assay, mean of 2(+) independent trials) it was more than 50 µM. Also, the inhibition at 100 µM in assay [2] (setting [7]) worked out at 11.2 ± 2.2%.
Consider `COc1ccc(/C=C2\Oc3ccccc3C2=O)cc1O` [Aurone 9078, (Z)-2-(3-hydroxy-4-methoxybenzylidene)benzofuran-3(2H)-one], for which the values for the IC50 in assay [1] (setting [6]), in assay [3] and in assay [4] were 70.7 µM, 1450 nM and 41.2 µM, respectively. Also, the inhibition at 100 µM in assay [2] (setting [7]) turned out to be 45.6 ± 2.6%.
Take `COc1ccc(/C=C2\Oc3ccccc3C2=O)c(OC)c1OC` [Sample 2001]: the values for the IC50 in assay [1] (setting [8]) and in assay [5] (setting [10]) were more than 100 µM and more than 50 µM, respectively. For the same molecule, the inhibition at 100 µM in assay [2] (setting [9]) worked out at 21.9%.
In the same order, the values of `COc1cc(/C=C2\Oc3ccccc3C2=O)cc(OC)c1OC` [Sample 2002] are more than 100 µM, more than 50 µM and 8.8%.
As to `O=C1/C(=C/c2ccc(Br)cc2)Oc2ccccc21` [Sample 2009], the results for the IC50 in assay [1] (setting [8]) and in assay [5] (setting [10]) were more than 100 µM and 11.4 µM, respectively. Besides, in assay [2] (setting [9]), the inhibition at 100 µM is 12.3%.
Turning to `O=C1/C(=C/c2ccc([N+](=O)[O-])cc2)Oc2ccccc21` [Sample 2010], the results for the IC50 in assay [1] (setting [8]) and in assay [5] (setting [10]) were 249 µM and 20 µM, respectively. For the same molecule, the inhibition at 100 µM in assay [2] (setting [9]) amounted to 3.3%.
With `COc1ccc(/C=C2\Oc3ccccc3C2=O)cc1OC` [Sample 2011], the IC50 in assay [1] (setting [8]) stood at 51.9 µM; in assay [5] (setting [10]), 21.9 µM. For the same molecule, in assay [2] (setting [9]), the inhibition at 100 µM turned out to be 14.2%.
In the case of `O=C1/C(=C/C=C/c2ccccc2)Oc2ccccc21` [Sample 2013], the results for the IC50 in assay [1] (setting [11]) and in assay [5] (setting [12]) were 58 µM and 14.1 µM, respectively. Besides, the inhibition at 100 µM in assay [2] (setting [9]) worked out at 64.6%.
For `N#Cc1ccc(/C=C2\Oc3ccccc3C2=O)cc1` [Sample 2014], the IC50 in assay [1] (setting [8]) worked out at 239 µM; in assay [5] (setting [10]), 23.5 µM. In addition, the inhibition at 100 µM in assay [2] (setting [9]) is 50.5%.
On the same counts, the results for `O=C1/C(=C/c2cccc([N+](=O)[O-])c2)Oc2ccccc21` [Sample 2015] are 226 µM, 22.6 µM and 2.2%.
Consider `O=C1/C(=C/c2ccc(-c3ccccc3)cc2)Oc2ccccc21` [Sample 2018], for which the results for the IC50 in assay [1] (setting [11]) and in assay [5] (setting [12]) were 298 µM and 34.4 µM, respectively. Moreover, in assay [2] (setting [9]), the inhibition at 100 µM worked out at 59.8%.
With `O=C1/C(=C/c2ccco2)Oc2ccccc21` [Sample 2023], the inhibition at 100 µM in assay [2] (setting [9]) worked out at 88.5%.
Still for that read-out and setting: under `O=C1/C(=C/c2ncc[nH]2)Oc2ccccc21` [Sample 2026] stands 43.8%; under `O=C1/C(=C/c2cccs2)Oc2cc(O)ccc21` [Sample 2901], 46.1%.
Same read-out and setting: under `Cc1ccc(/C=C2\Oc3cc(O)ccc3C2=O)cc1` [Sample 2904] stands 20%; under `O=C1/C(=C/c2ccc(Br)cc2)Oc2cc(O)ccc21` [Sample 2905], 16.6%; under `O=C1/C(=C/c2ccc[nH]2)Oc2cc(O)ccc21` [Sample 2906], 27.5%.
Same read-out and setting: in the case of `COc1ccc(/C=C2\Oc3cc(O)ccc3C2=O)cc1O` [Sample 2911] it was 40%; in that of `COc1ccc(/C=C2\Oc3cc(O)ccc3C2=O)c(OC)c1OC` [Sample 2912], 54.8%.
For `COc1ccc2c(c1)O/C(=C\c1ccc(C)cc1)C2=O` [Sample 5002], the inhibition at 100 µM in assay [2] (setting [9]) was determined as 37.6%.
The same measure, in the same setting: in the case of `COc1ccc2c(c1)O/C(=C\c1ccc(Br)cc1)C2=O` [Sample 5005] it was 22.4%; in that of `COc1ccc2c(c1)O/C(=C\c1ccc(C#N)cc1)C2=O` [Sample 5006], 19.4%; in that of `Cc1ccc(/C=C2\Oc3ccc(Br)cc3C2=O)cc1` [Sample 6000], 6.1%.
On the same count and under the same terms, in the case of `COc1cc(OC)c2c(c1)O/C(=C\c1ccc(C)cc1)C2=O` [Sample 7000] it was 45.6%; in that of `COc1cc(OC)c2c(c1)O/C(=C\c1ccc([N+](=O)[O-])cc1)C2=O` [Sample 7001], 12.6%.
`CCc1ccc(/C=C2\Oc3ccccc3C2=O)cc1` [Sample 8001]: the IC50 in assay [1] (setting [8]) was more than 100 µM; in assay [5] (setting [10]), 11.4 µM. The inhibition at 100 µM in assay [2] (setting [9]) amounted to 22.8%.
On the same counts, the results for `CC(C)c1ccc(/C=C2\Oc3ccccc3C2=O)cc1` [Sample 8002] are 89 µM, 16.6 µM and 26.6%.
As to `O=C1/C(=C/c2cc(Br)c(Br)s2)Oc2ccccc21` [Sample 9050], the inhibition at 100 µM in assay [2] (setting [9]) came to 37.4%.
With `COc1cc(/C=C2\Oc3ccccc3C2=O)ccc1O` [Sample 9053], the IC50 in assay [1] (setting [8]) was more than 200 µM; in assay [5] (setting [10]) it was more than 50 µM. For the same molecule, the inhibition at 100 µM in assay [2] (setting [9]) came out at 11.2%.
In the same order, the values of `COc1cccc(/C=C2\Oc3ccccc3C2=O)c1O` [Sample 9055] are more than 100 µM, more than 50 µM and 16.7%.
On the same counts, the results for `COc1cc(Br)c(/C=C2\Oc3ccccc3C2=O)cc1OC` [Sample 9056] are more than 100 µM, 36 µM and 12.5%.
On the same counts, the results for `Cc1ccccc1/C=C1\Oc2ccccc2C1=O` [Sample 9057] are 99.6 µM, 26.3 µM and 33.6%.
`O=C1/C(=C/c2sccc2Br)Oc2ccccc21` [Sample 9060]: in assay [2] (setting [9]), the inhibition at 100 µM is 7.5%.
Still for that read-out and setting: in the case of `O=C1/C(=C/c2cc(Br)cs2)Oc2ccccc21` [Sample 9061] it was 3.1%; in that of `O=C1/C(=C/c2c[nH]c3ccccc23)Oc2ccccc21` [Sample 9062], 16.4%.
On the same count and under the same terms, under `O=C1/C(=C/c2cccc3[nH]ccc23)Oc2ccccc21` [Sample 9063] stands 24%.
As to `Cc1cccc(/C=C2\Oc3ccccc3C2=O)c1` [Sample 9064], the IC50 turned out to be 79.9 µM in assay [1] (setting [8]) and 37.9 µM in assay [5] (setting [10]). For the same molecule, the inhibition at 100 µM in assay [2] (setting [9]) amounted to 32.1%.
Regarding `O=C1/C(=C/c2ccc(CO)o2)Oc2ccccc21` [Sample 9067], the inhibition at 100 µM in assay [2] (setting [9]) amounted to 17.6%.
In the case of `O=C1/C(=C/c2ccc(O)cc2)Oc2ccccc21` [Sample 9068], the figures for the IC50 in assay [1] (setting [8]) and in assay [5] (setting [10]) were more than 100 µM and more than 50 µM, respectively. Further, the inhibition at 100 µM in assay [2] (setting [9]) worked out at 11.1%.
In the same order, the values of `N#Cc1cccc(/C=C2\Oc3ccccc3C2=O)c1` [Sample 9070] are more than 200 µM, 16.7 µM and 14.7%.
`N#Cc1ccc(/C=C2\Oc3cc(O)ccc3C2=O)cc1` [Sample 9076]: the inhibition at 100 µM in assay [2] (setting [9]) was 7.5%.
For the molecule `COc1ccc(/C=C2\Oc3ccccc3C2=O)cc1O` [Sample 9078], the IC50 in assay [1] (setting [8]) was 70.7 µM. Further, the inhibition at 100 µM in assay [2] (setting [9]) was 45.6%.
Consider `O=C1/C(=C/c2ccc(C(F)(F)F)cc2)Oc2ccccc21` [Sample 9084], for which the results for the IC50 in assay [1] (setting [8]) and in assay [5] (setting [10]) were more than 400 µM and 9.38 µM, respectively. Also, in assay [2] (setting [9]), the inhibition at 100 µM worked out at 17.6%.
On the same counts, the results for `O=C1/C(=C/c2cccc(C(F)(F)F)c2)Oc2ccccc21` [Sample 9085] are 73.4 µM, 11.1 µM and 20.2%.
For the molecule `O=C1/C(=C/c2ccccc2C(F)(F)F)Oc2ccccc21` [Sample 9086], the IC50 in assay [1] (setting [8]) is 130 µM; in assay [5] (setting [10]), 18.5 µM. Further, in assay [2] (setting [9]), the inhibition at 100 µM was 14.3%.
With `CN(C)c1ccc(/C=C2\Oc3ccccc3C2=O)cc1` [Sample 9087], the IC50 is 144 µM in assay [1] (setting [11]) and 5.38 µM in assay [5] (setting [12]). Besides, the inhibition at 100 µM in assay [2] (setting [9]) was determined as 31.2%.
In the case of `O=C1/C(=C/c2ccccc2O)Oc2ccccc21` [Sample 9088], the values for the half-inhibitory concentration (IC50) in assay [1] (setting [8]) and in assay [5] (setting [10]) were more than 100 µM and 18.4 µM, respectively. In assay [2] (setting [9]), the inhibition at 100 µM worked out at 1%.

The values are drawn from patent US20200399238A1, “THERAPEUTIC AURONES” (MIDDLE TENNESSEE STATE UNIVERSITY, priority 2016, published 2020).
